Experimental data from patent publication US20200247800A1, “SUBSTITUTED BICYCLIC HETEROCYCLIC COMPOUNDS AS NADPH OXIDASE INHIBITORS” (Glenmark Pharmaceuticals S.A., priority 2017, published 2020).

Target: T1, human NOX4 (Homo sapiens, UniProt Q9NPH5)
T1 construct: expressed in transfected cells; membrane fraction used
T1 sequence (Q9NPH5 1-578): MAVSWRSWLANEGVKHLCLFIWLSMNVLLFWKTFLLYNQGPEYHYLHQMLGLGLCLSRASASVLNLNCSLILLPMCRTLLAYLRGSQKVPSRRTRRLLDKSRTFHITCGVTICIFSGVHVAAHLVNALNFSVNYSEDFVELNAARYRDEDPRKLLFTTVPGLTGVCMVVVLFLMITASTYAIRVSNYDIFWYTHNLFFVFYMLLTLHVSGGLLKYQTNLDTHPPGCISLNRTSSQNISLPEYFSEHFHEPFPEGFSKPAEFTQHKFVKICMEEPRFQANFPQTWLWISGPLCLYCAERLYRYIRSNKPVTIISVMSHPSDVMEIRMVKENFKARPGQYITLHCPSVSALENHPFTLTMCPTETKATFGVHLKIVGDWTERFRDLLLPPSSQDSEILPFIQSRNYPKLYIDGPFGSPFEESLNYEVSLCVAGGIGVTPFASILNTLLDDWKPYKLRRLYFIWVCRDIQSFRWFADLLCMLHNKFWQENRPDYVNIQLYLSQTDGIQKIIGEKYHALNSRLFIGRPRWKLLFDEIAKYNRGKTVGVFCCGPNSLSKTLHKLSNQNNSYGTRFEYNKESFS
T1 sequence (P13498 1-195 partner): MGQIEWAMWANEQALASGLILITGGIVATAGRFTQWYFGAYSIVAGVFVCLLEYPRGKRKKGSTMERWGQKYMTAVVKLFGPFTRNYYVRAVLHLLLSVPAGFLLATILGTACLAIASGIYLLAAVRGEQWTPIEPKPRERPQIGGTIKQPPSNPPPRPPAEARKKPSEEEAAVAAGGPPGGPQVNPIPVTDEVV
Assay: Cell free membrane based in vitro NOX4 assay: H2O2 production by membranes expressing human NOX4, measured with Amplex Red
Assay type: biochemical
Conditions: for inhibition at 1 µM: 1.0 μM compound, read-out: Percentage inhibition at 1.0 μM; for inhibition at 10 µM: 10.0 μM compound, read-out: Percentage inhibition at 10.0 μM; for IC50: class symbols
Summary of the method: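 IC50 came from concentration-response curves fitted as % of the inhibitor-free maximum. H2O2 formation was monitored for 10 min via Amplex Red/HRP fluorescence (544/590 nm) after NADPH start. Membranes from a stable hNOX4/HEK line had 20 min exposure to inhibitor beforehand at pH 7.4.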

SMILES | inhibition at 1 µM [%] | inhibition at 10 µM [%] | IC50 [nM]
CCn1nc(C(F)(F)F)c2c(=O)c(O)c(-c3c(F)cccc3F)[nH]c21 [Example 100, 6-(2,6-Difluorophenyl)-1-ethyl-5-hydroxy-3-(trifluoromethyl)-1H-pyrazolo[3,4-b]pyridin-4(7H)-one] | 66.7 | 84.8 | > 150
CCn1cnc2c(=O)c(O)c(-c3c(F)cccc3F)[nH]c21 [Example 101, 5-(2,6-Difluorophenyl)-3-ethyl-6-hydroxy-3H-imidazo[4,5-b]pyridin-7(4H)-one] | 69.7 | 88.6 | > 150
COCc1nn(C)c2[nH]c(-c3c(F)cccc3F)c(O)c(=O)c12 [Example 102, 6-(2,6-Difluorophenyl)-5-hydroxy-3-(methoxymethyl)-1-methyl-1H-pyrazolo[3,4-b]pyridin-4(7H)-one] | 86.2 | 91.5 | 50 to 100
CCc1nn(CC)c2[nH]c(-c3c(F)cccc3F)c(O)c(=O)c12 [Example 103, 6-(2,6-Difluorophenyl)-1,3-diethyl-5-hydroxy-1,7-dihydro-4H-pyrazolo[3,4-b]pyridin-4-one] | 99.4 | 100 | < 50
CCn1nc(C)c2c(=O)c(O)c(-c3cccc(C(F)(F)F)c3F)[nH]c21 [Example 104, 1-Ethyl-6-[2-fluoro-3-(trifluoromethyl)phenyl]-5-hydroxy-3-methyl-1,7-dihydro-4H-pyrazolo[3,4-b]pyridin-4-one] | 99.8 | 96.9 | 100 to 150
CCn1ncc2c(=O)c(O)c(-c3c(F)cccc3F)[nH]c21 [Example 105, 6-(2,6-Difluorophenyl)-1-ethyl-5-hydroxy-1,7-dihydro-4H-pyrazolo[3,4-b]pyridin-4-one] | 99.1 | 100 | > 150
Cc1n[nH]c2[nH]c(-c3c(F)cccc3F)c(O)c(=O)c12 [Example 106, 6-(2,6-Difluorophenyl)-5-hydroxy-3-methyl-1,7-dihydro-4H-pyrazolo[3,4-b]pyridin-4-one] | 100 | 100 | 50 to 100
CCn1nc(C)c2c(=O)c(O)c(-c3ccccc3F)[nH]c21 [Example 107, 1-Ethyl-6-(2-fluorophenyl)-5-hydroxy-3-methyl-1,7-dihydro-4H-pyrazolo[3,4-b]pyridin-4-one] | 70.8 | 61.2 | > 150
Cc1nn(CC(C)C)c2[nH]c(-c3c(F)cccc3F)c(O)c(=O)c12 [Example 108, 6-(2,6-Difluorophenyl)-5-hydroxy-1-isobutyl-3-methyl-1H-pyrazolo[3,4-b]pyridin-4(7H)-one] | 70.7 | 77.9 | 50 to 100
CCn1nc(C(F)(F)F)c2c(=O)c(O)c(-c3ccccc3Cl)[nH]c21 [Example 109, 6-(2-Chlorophenyl)-1-ethyl-5-hydroxy-3-(trifluoromethyl)-1H-pyrazolo[3,4-b]pyridin-4(7H)-one] | 60.5 | 82.1 | > 150
CCn1nc(C)c2c(=O)c(O)c(-c3ccccc3OC)[nH]c21 [Example 110, 1-Ethyl-5-hydroxy-6-(2-methoxyphenyl)-3-methyl-1H-pyrazolo[3,4-b]pyridin-4(7H)-one] | 60.5 | 63 | > 150
CC(C)Cn1nc(C(F)(F)F)c2c(=O)c(O)c(-c3c(F)cccc3F)[nH]c21 [Example 111, 6-(2,6-Difluorophenyl)-5-hydroxy-1-isobutyl-3-(trifluoromethyl)-1H-pyrazolo[3,4-b]pyridin-4(7H)-one] | 56.4 | 81.7 | > 150
CCn1nc(C)c2c(=O)c(O)c(-c3ccc(F)cc3)[nH]c21 [Example 112, 1-Ethyl-6-(4-fluorophenyl)-5-hydroxy-3-methyl-1,7-dihydro-4H-pyrazolo[3,4-b]pyridin-4-one] | 44.1 | – | –
Cn1nc(-c2ccc(F)cc2)c2c(=O)c(O)c(-c3c(F)cccc3F)[nH]c21 [Example 113, 6-(2,6-Difluorophenyl)-3-(4-fluorophenyl)-5-hydroxy-1-methyl-1H-pyrazolo[3,4-b]pyridin-4(7H)-one] | 91.3 | 92.3 | 50 to 100
COc1ccc(-c2[nH]c3c(c(C)nn3C3CC3)c(=O)c2O)c(F)c1 [Example 114, 1-Cyclopropyl-6-(2-fluoro-4-methoxyphenyl)-5-hydroxy-3-methyl-1H-pyrazolo[3,4-b]pyridin-4(7H)-one] | 61 | 69.9 | > 150
Cn1nc(Cc2ccccc2)c2c(=O)c(O)c(-c3c(F)cccc3F)[nH]c21 [Example 115, 3-Benzyl-6-(2,6-difluorophenyl)-5-hydroxy-1-methyl-1H-pyrazolo[3,4-b]pyridin-4(7H)-one] | 76.7 | 80.8 | 100 to 150
CCn1nc(C)c2c(=O)c(O)c(-c3ccc(F)c(C(F)(F)F)c3F)[nH]c21 [Example 116, 6-(2,4-Difluoro-3-(trifluoromethyl)phenyl)-1-ethyl-5-hydroxy-3-methyl-1H-pyrazolo[3,4-b]pyridin-4(7H)-one] | 78.6 | 73 | > 150
Cn1nc(N2CCOCC2)c2c(=O)c(O)c(-c3c(F)cccc3F)[nH]c21 [Example 117, 6-(2,6-Difluorophenyl)-5-hydroxy-1-methyl-3-morpholino-1H-pyrazolo[3,4-b]pyridin-4(7H)-one] | 6.79 | 15.6 | –
CCn1nc(C)c2c(=O)c(O)c(-c3c(F)cc(OC)cc3F)[nH]c21 [Example 118, 6-(2,6-Difluoro-4-methoxyphenyl)-1-ethyl-5-hydroxy-3-methyl-1H-pyrazolo[3,4-b]pyridin-4(7H)-one] | 78.8 | 77.5 | 50 to 100
CCn1nc(C)c2c(=O)c(O)c(-c3ccc(N)cc3F)[nH]c21 [Example 119, 6-(4-Amino-2-fluorophenyl)-1-ethyl-5-hydroxy-3-methyl-1,7-dihydro-4H-pyrazolo[3,4-b]pyridin-4-one] | 66.9 | – | > 150
CCn1nc(C)c2c(=O)c(O)c(-c3ccc(OCCOC)cc3F)[nH]c21 [Example 120, 1-Ethyl-6-[2-fluoro-4-(2-methoxyethoxy)phenyl]-5-hydroxy-3-methyl-1,7-dihydro-4H-pyrazolo[3,4-b]pyridin-4-one] | 64.8 | – | > 150
CCn1nc(C)c2c(=O)c(O)c(-c3ccc(OCC4CC4)cc3F)[nH]c21 [Example 121, 6-[4-(Cyclopropylmethoxy)-2-fluorophenyl]-1-ethyl-5-hydroxy-3-methyl-1,7-dihydro-4H-pyrazolo[3,4-b]pyridin-4-one] | 70.2 | – | > 150
CCn1nc(CC(C)C)c2c(=O)c(O)c(-c3c(F)cccc3F)[nH]c21 [Example 122, 6-(2,6-Difluorophenyl)-1-ethyl-5-hydroxy-3-(2-methylpropyl)-1,7-dihydro-4H-pyrazolo[3,4-b]pyridin-4-one] | 72.7 | 75.4 | > 150
